Reference: ChEMBL document CHEMBL5126608, “Development, Optimization, and In Vivo Validation of New Imidazopyridine Chemotypes as Dual TLR7/TLR9 Antagonists through Activity-Directed Sequential Incorporation of Relevant Structural Subunits” (J Med Chem, 2022)

Columns and labels:
Toll-like receptor 8 = target: T1, Toll-like receptor 8 (Homo sapiens, UniProt Q9NR97)
T1 sequence (Q9NR97 whole entry): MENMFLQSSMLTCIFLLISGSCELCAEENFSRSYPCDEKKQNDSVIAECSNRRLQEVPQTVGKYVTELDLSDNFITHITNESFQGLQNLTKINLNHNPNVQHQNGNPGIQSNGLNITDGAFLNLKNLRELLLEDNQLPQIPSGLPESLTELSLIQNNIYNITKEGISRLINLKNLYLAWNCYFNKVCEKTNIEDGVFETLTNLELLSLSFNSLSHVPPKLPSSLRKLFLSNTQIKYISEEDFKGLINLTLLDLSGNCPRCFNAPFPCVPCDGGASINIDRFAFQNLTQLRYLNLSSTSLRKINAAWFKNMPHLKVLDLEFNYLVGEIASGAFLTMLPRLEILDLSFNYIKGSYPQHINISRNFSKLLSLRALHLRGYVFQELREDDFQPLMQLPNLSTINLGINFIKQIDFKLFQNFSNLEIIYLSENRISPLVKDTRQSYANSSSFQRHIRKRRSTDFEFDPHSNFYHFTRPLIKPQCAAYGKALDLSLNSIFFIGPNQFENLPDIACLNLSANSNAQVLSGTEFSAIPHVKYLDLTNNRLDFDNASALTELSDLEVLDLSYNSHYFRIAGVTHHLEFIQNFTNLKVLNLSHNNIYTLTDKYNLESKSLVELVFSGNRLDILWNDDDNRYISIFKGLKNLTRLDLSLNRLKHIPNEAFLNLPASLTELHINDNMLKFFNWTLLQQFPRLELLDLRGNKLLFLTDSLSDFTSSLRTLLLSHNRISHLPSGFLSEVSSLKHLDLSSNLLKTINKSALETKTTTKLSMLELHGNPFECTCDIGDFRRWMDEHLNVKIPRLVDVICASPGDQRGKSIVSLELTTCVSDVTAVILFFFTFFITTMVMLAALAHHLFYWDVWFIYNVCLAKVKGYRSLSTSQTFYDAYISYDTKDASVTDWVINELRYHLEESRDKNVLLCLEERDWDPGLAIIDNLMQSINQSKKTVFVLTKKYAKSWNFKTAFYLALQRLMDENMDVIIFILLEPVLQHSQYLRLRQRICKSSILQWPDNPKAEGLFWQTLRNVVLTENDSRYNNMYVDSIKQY

Toll-like receptor 9 = target: T2, Toll-like receptor 9 (Homo sapiens, UniProt Q9NR96); test: Antagonist activity at human TLR9 expressed in HEK-blue hTLR9 cells assessed as inhibition of CpGB-induced NFkappaB activation preincubated with compound for 1 hrs followed by CpGB addition and measured next day by SEAP-based spectrophotometry assay; format: cell-based
T2 sequence (Q9NR96 whole entry): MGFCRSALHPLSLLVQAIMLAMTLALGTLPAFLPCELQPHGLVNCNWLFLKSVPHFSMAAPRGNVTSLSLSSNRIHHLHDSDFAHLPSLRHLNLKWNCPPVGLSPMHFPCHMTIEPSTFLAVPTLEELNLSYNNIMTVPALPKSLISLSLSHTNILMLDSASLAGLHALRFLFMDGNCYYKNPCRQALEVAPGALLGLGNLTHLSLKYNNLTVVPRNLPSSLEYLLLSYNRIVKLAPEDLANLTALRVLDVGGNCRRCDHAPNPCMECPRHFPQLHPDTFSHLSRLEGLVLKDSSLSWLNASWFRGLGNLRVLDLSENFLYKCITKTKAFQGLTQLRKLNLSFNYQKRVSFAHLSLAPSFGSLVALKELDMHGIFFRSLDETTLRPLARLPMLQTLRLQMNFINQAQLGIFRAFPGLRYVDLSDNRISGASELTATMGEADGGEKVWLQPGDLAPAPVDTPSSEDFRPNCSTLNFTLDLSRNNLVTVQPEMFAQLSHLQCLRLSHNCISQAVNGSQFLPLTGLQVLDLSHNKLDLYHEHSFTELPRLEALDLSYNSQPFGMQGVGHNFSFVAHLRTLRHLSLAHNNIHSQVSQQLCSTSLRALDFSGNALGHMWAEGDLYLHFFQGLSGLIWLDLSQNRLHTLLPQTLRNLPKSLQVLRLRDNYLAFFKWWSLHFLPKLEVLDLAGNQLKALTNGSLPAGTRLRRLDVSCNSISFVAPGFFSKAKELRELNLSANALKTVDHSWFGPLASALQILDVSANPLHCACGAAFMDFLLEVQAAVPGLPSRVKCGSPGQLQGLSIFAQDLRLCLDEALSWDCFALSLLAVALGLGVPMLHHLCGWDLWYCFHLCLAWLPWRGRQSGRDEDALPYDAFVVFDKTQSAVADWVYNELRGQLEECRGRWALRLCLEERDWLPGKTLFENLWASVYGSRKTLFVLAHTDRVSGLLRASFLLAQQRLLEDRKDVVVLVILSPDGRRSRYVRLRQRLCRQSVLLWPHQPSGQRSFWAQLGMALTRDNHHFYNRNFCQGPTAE

COc1ccc(-c2cn3ccc(NCCCN4CCCC4)cc3n2)c(OC)c1
IC50 (Toll-like receptor 8): 17.2 µM
IC50 (Toll-like receptor 9): 0.019 µM
